Results as given in patent publication US6306881A, “Anti-inflammatory agents” (British Biotech Pharmaceuticals, priority 1998, dated 2001).

Columns and labels:
LTA4-hydrolase = biological target: T1, LTA4-hydrolase (Rattus norvegicus, UniProt P30349); assay: Inhibition of LTA4 hydrolase activity (LTB4 formation by radioimmunoassay); format: biochemical; details: crude fraction from rat lung, 1 minute at 37° C.
T1 construct: was prepared as a crude fraction from rat lung tissue; from tissue; host or cells: rat lung tissue, crude fraction
T1 sequence (P30349 1-611): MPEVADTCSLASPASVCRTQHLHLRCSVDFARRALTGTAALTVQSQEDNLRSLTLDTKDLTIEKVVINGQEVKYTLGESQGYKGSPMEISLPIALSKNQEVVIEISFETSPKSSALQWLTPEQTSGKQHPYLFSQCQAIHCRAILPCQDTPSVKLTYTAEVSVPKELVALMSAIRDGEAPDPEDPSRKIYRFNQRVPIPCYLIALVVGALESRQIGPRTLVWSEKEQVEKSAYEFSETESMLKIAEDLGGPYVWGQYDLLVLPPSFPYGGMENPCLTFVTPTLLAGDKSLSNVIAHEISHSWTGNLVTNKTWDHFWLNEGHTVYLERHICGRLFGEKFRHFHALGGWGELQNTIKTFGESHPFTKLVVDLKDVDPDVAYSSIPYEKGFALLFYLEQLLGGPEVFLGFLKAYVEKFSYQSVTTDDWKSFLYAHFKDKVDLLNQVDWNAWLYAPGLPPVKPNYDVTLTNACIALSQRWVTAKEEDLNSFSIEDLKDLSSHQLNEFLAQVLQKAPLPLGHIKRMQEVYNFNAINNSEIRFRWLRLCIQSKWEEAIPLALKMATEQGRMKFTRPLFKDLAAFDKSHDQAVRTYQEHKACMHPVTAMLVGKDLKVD
Description: LTA4 -hydoiase was prepared as a crude fraction from rat lung tissue. The sodium salt of LTA4 was incubated with the enzyme and test compounds at 10 μM for 1 minute at 37° C. The reaction was terminated by the addition of ice-cold methanol. Formation of LTB4 was assessed by radioimmunoassay. Results are expressed as a percentage inhibition of LTA4 hydrolase activity.

[1] = tested on: Leukotriene Synthesis by Rat Basophilic Leukaemia Cells; assay: Inhibition of Leukotriene Synthesis by Rat Basophilic Leukaemia Cells (RBL-1, A23187 stimulated, LTB4); format: cell-based; details: RBL-1 cells, 4.75 hours preincubation, 10 μM A23187, 15 minutes at 37° C., value estimated, read-out: IC50 (leukotriene B4 synthesis)
Description: Inhibition of Leukotriene Synthesis by Rat Basophilic Leukaemia Cells
The rat basophilic leukaemia cell line RBL-1 was obtained from ATCC or ECACC and cultured in Dulbecco's modified Eagle's medium (DMEM) supplemented with 10% foetal bovine serum, non-essential amino acids, sodium pyruvate, penicillin, streptomycin and 2mM glutamine, at 37° C. in an atmosphere of 5% CO2 in air, as recommended by the culture collection.
RBL-1 cells were harvested during log growth, washed and resuspended in Hanks Balanced Salt Solution, without calcium chloride and magnesium chloride, supplemented with 10% foetal bovine serum and penicillin, streptomycin, and 2mM glutamine and adjusted to a final cell concentration of 1.25×10^5 cells/ml. Cells incubated in the presence of the appropriate concentration of inhibitor or vehicle for 4.75 hours at 37° C. Cells then transferred to ice for 15 minutes. Cells washed by centrifugation and resuspension in prechilled Phosphate Buffered Saline, with calcium chloride and magnesium chloride, supplemented with the appropriate concentration of test sample. […]
Treated cells then exposed to 10 μM A23187 for 15 minutes at 37° C. […] The levels of leukotriene B4 then determined in the cell free supernatant using the Leukotriene B4 [^3 H] assay system from Amersham Pharmacia Biotech.

male Lewis rats = assay: Rat Adjuvant Arthritis Model; format: in vivo; details: Day 10 to Day 21, vs vehicle, P<0.05
Description: Rat Adjuvant Arthritis Model
Adjuvant arthritis was induced in male Lewis rats on Day 0, using a suspension of mycobacterium butyncum in mineral oil, inoculated subcutaneously, into the base of the tail. The volume of the hind paws was measured regularly to assess the time course of disease progression. […] Nine animals were allocated to each group. Animals received their first treatment on Day 10, either vehicle (2% DMSO in PBSiTween (0.01%v/v)) or test compound, formulated as a suspension in the vehicle. Treatment was administered as an intraperitoneal bolus injection, once daily, for the duration of the study. The study was ended on Day 21. The percent increase in mean paw volume from Day 10 to Day 21 was calculated for each animal and the compound treated groups compared to the vehicle treated control group.

cells = details: cited from earlier work
LTA4 hydrolase = details: isolated enzyme; T. D. Penning et al, 1995; cited from earlier work

SMILES: C=CC[C@H](C(=O)NO)[C@@H](CC(C)C)C(=O)N[C@@H](Cc1ccccc1)C(=O)OC1CCCC1 [Example 19, 2S-(3S-Hydroxycarbamoyl-2R-isobutyl-hex-5-enoylamin)-3-phenylpropionic acid cyclopentyl ester]
- inhibition at 10 µM (LTA4-hydrolase): 78%
- IC50 [1]: 2 nM
- inhibition of paw swelling (male Lewis rats; 30mg/kg i.p. once daily): 60%
- inhibition of paw swelling (male Lewis rats; 100mg/kg i.p. once daily): 77%

SMILES: C=CC[C@H](C(=O)NO)[C@@H](CC(C)C)C(=O)N[C@H](C(=O)OC1CCCC1)c1ccccc1 [Example 40, 2S-(3S-Hydroxycarbamoyl-2R-isobutyl-hex-5-enoylamino)-2-phenylethanoic acid cyclopentyl ester]
- inhibition at 10 µM (LTA4-hydrolase): 75%

SMILES: CC(C)C[C@H](NC(=O)[C@@H](O)[C@H](N)Cc1ccccc1)C(=O)O [bestatin]
- ability to penetrate cells (cells): unable to effectively penetrate cells
- LTA4 hydrolase inhibitory activity (LTA4 hydrolase): exhibit LTA4 hydrolase inhibitory activity against isolated enzyme

SMILES: C[C@H](CS)C(=O)N1CCC[C@H]1C(=O)O [captopril]
- ability to penetrate cells (cells): unable to effectively penetrate cells
- LTA4 hydrolase inhibitory activity (LTA4 hydrolase): exhibit LTA4 hydrolase inhibitory activity against isolated enzyme

SMILES: C[C@H](NC(=O)[C@@H](CC(=O)NO)Cc1ccccc1)C(=O)O [kelatorphan]
- inhibition at 10 µM (LTA4-hydrolase): 80%
- IC50 [1]: 350 nM
- ability to penetrate cells (cells): unable to effectively penetrate cells
- LTA4 hydrolase inhibitory activity (LTA4 hydrolase): exhibit LTA4 hydrolase inhibitory activity against isolated enzyme
